How the values were obtained:
Test in all cases: relative viability (nuclei count vs DMSO), 5 days (fraction); higher = more cells survive
[1] = compound: CCc1cnn2c(NCc3ccc[n+]([O-])c3)cc(N3CCCC[C@H]3CCO)nc12 [Dinaciclib] + C[C@@H](Oc1cc(-c2cnn(C3CCNCC3)c2)cnc1N)c1c(Cl)ccc(F)c1Cl [Crizotinib] (partner 1 µM)
How it was run: (§1)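 Each reported value is a median over duplicate plates. It expresses relative viability: treated-well nuclei count divided by vehicle-well nuclei count. Lung cancer cell lines in 1536-well plates were dosed by pin tool a day after seeding, alone with one drug or with a fixed anchor-drug dose plus five library-drug doses (not always all listed) in √10 steps, and nuclei were counted after 5 days.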

[2] = compound: CCc1cnn2c(NCc3ccc[n+]([O-])c3)cc(N3CCCC[C@H]3CCO)nc12 [Dinaciclib] + CS(=O)(=O)N1CCN(Cc2cc3nc(-c4cccc5[nH]ncc45)nc(N4CCOCC4)c3s2)CC1 [Pictilisib] (partner 1 µM)
How it was run: as §1

[3] = compound: CCc1cnn2c(NCc3ccc[n+]([O-])c3)cc(N3CCCC[C@H]3CCO)nc12 [Dinaciclib] + CS(=O)(=O)CCNCc1ccc(-c2ccc3ncnc(Nc4ccc(OCc5cccc(F)c5)c(Cl)c4)c3c2)o1 [Lapatinib] (partner 2 µM)
How it was run: as §1

[4] = compound: CCc1cnn2c(NCc3ccc[n+]([O-])c3)cc(N3CCCC[C@H]3CCO)nc12 [Dinaciclib] + N=C(N)NC(=N)NCCc1ccccc1 [Phenformin] (partner 250 µM)
How it was run: as §1

[5] = compound: CCc1cnn2c(NCc3ccc[n+]([O-])c3)cc(N3CCCC[C@H]3CCO)nc12 [Dinaciclib] + CC1(C)CCC(c2ccc(Cl)cc2)=C(CN2CCN(c3ccc(C(=O)NS(=O)(=O)c4ccc(N[C@H](CCN5CCOCC5)CSc5ccccc5)c(S(=O)(=O)C(F)(F)F)c4)cc3)CC2)C1 [Navitoclax] (partner 0.5 µM)
How it was run: as §1

[6] = compound: CCc1cnn2c(NCc3ccc[n+]([O-])c3)cc(N3CCCC[C@H]3CCO)nc12 [Dinaciclib] + COc1cc2c(Oc3ccc(NC(=O)C4(C(=O)Nc5ccc(F)cc5)CC4)cc3F)ccnc2cc1OCCCN1CCOCC1 [Foretinib] (partner 0.25 µM)
How it was run: as §1

[7] = compound: CCc1cnn2c(NCc3ccc[n+]([O-])c3)cc(N3CCCC[C@H]3CCO)nc12 [Dinaciclib] + Cc1nc(NC(=O)N2CCC[C@H]2C(N)=O)sc1-c1ccnc(C(C)(C)C(F)(F)F)c1 [Alpelisib] (partner 2 µM)
How it was run: as §1

[8] = compound: CCc1cnn2c(NCc3ccc[n+]([O-])c3)cc(N3CCCC[C@H]3CCO)nc12 [Dinaciclib] + C[C@]1(O)C[C@@H](c2nc(-c3ccc4ccc(-c5ccccc5)nc4c3)c3c(N)nccn32)C1 [Linsitinib] (partner 1 µM)
How it was run: as §1

[9] = compound: CCc1cnn2c(NCc3ccc[n+]([O-])c3)cc(N3CCCC[C@H]3CCO)nc12 [Dinaciclib] + O=C(c1cc(Cc2n[nH]c(=O)c3ccccc23)ccc1F)N1CCN(C(=O)C2CC2)CC1 [Olaparib] (partner 8 µM)
How it was run: as §1

[10] = compound: CCc1cnn2c(NCc3ccc[n+]([O-])c3)cc(N3CCCC[C@H]3CCO)nc12 [Dinaciclib] + Nc1ncn([C@H]2C[C@H](O)[C@@H](CO)O2)c(=O)n1 [Decitabine] (partner 2 µM)
How it was run: as §1

[11] = compound: CCc1cnn2c(NCc3ccc[n+]([O-])c3)cc(N3CCCC[C@H]3CCO)nc12 [Dinaciclib]
How it was run: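 Viability is treated-well nuclei as a fraction of vehicle-well nuclei, reported as the median across plates. Before counting, lung cancer cell lines were kept overnight at 37 °C in 1536-well plates, pinned with five √10-spaced library-drug doses on vehicle-anchored plates, and left 5 days without medium change, then fixed, permeabilised and Hoechst-stained in one step, imaged at 4× and counted by MetaXpress. A plate passed only if control CV was below 25% and at least one doubling occurred.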

[12] = compound: CCc1cnn2c(NCc3ccc[n+]([O-])c3)cc(N3CCCC[C@H]3CCO)nc12 [Dinaciclib] + CC(C)C[C@H](NC(=O)[C@H](Cc1ccccc1)NC(=O)c1cnccn1)B(O)O [Bortezomib] (partner 0.002 µM)
How it was run: as §1

A549
relative viability ([1]; first compound 0.009487 µM): 0.724 | relative viability ([1]; first compound 0.03 µM): 0.365 | relative viability ([1]; first compound 0.09487 µM): 0.0408 | relative viability ([1]; first compound 0.3 µM): 0.05 | relative viability ([2]; first compound 0.009487 µM): 0.375 | relative viability ([2]; first compound 0.03 µM): 0.0566 | relative viability ([2]; first compound 0.09487 µM): 0.0629 | relative viability ([2]; first compound 0.3 µM): 0.0604 | relative viability ([3]; first compound 0.009487 µM): 0.85 | relative viability ([3]; first compound 0.03 µM): 0.0505 | relative viability ([3]; first compound 0.09487 µM): 0.0627 | relative viability ([3]; first compound 0.3 µM): 0.0615 | relative viability ([4]; first compound 0.009487 µM): 0.174 | relative viability ([4]; first compound 0.03 µM): 0.0204 | relative viability ([4]; first compound 0.09487 µM): 0.035 | relative viability ([4]; first compound 0.3 µM): 0.0274 | relative viability ([5]; first compound 0.009487 µM): 1.05 | relative viability ([5]; first compound 0.03 µM): 0.0352 | relative viability ([5]; first compound 0.09487 µM): 0.038 | relative viability ([5]; first compound 0.3 µM): 0.0398 | relative viability ([6]; first compound 0.009487 µM): 0.952 | relative viability ([6]; first compound 0.03 µM): 0.0544 | relative viability ([6]; first compound 0.09487 µM): 0.0214 | relative viability ([6]; first compound 0.3 µM): 0.0246 | relative viability ([7]; first compound 0.009487 µM): 0.686 | relative viability ([7]; first compound 0.03 µM): 0.0411 | relative viability ([7]; first compound 0.09487 µM): 0.0487 | relative viability ([7]; first compound 0.3 µM): 0.0518 | relative viability ([8]; first compound 0.009487 µM): 0.561 | relative viability ([8]; first compound 0.03 µM): 0.165 | relative viability ([8]; first compound 0.09487 µM): 0.0454 | relative viability ([8]; first compound 0.3 µM): 0.0453 | relative viability ([9]; first compound 0.009487 µM): 0.276 | relative viability ([9]; first compound 0.03 µM): 0.0567 | relative viability ([9]; first compound 0.09487 µM): 0.0423 | relative viability ([9]; first compound 0.3 µM): 0.0382 | relative viability ([10]; first compound 0.009487 µM): 0.293 | relative viability ([10]; first compound 0.03 µM): 0.205 | relative viability ([10]; first compound 0.09487 µM): 0.0304 | relative viability ([10]; first compound 0.3 µM): 0.0308 | relative viability ([11]; 0.009487 µM): 0.968 | relative viability ([11]; 0.03 µM): 0.32 | relative viability ([11]; 0.09487 µM): 0.0405 | relative viability ([11]; 0.3 µM): 0.046

Calu-6
relative viability ([1]; first compound 0.009487 µM): 0.619 | relative viability ([1]; first compound 0.03 µM): 0.208 | relative viability ([1]; first compound 0.09487 µM): 0.0928 | relative viability ([1]; first compound 0.3 µM): 0.126 | relative viability ([2]; first compound 0.009487 µM): 0.523 | relative viability ([2]; first compound 0.03 µM): 0.113 | relative viability ([2]; first compound 0.09487 µM): 0.116 | relative viability ([2]; first compound 0.3 µM): 0.114 | relative viability ([3]; first compound 0.009487 µM): 0.914 | relative viability ([3]; first compound 0.03 µM): 0.112 | relative viability ([3]; first compound 0.09487 µM): 0.13 | relative viability ([3]; first compound 0.3 µM): 0.134 | relative viability ([12]; first compound 0.009487 µM): 0.54 | relative viability ([12]; first compound 0.03 µM): 0.128 | relative viability ([12]; first compound 0.09487 µM): 0.133 | relative viability ([12]; first compound 0.3 µM): 0.123 | relative viability ([5]; first compound 0.009487 µM): 0.524 | relative viability ([5]; first compound 0.03 µM): 0.0805 | relative viability ([5]; first compound 0.09487 µM): 0.0782 | relative viability ([5]; first compound 0.3 µM): 0.0765 | relative viability ([6]; first compound 0.009487 µM): 0.757 | relative viability ([6]; first compound 0.03 µM): 0.0769 | relative viability ([6]; first compound 0.09487 µM): 0.0773 | relative viability ([6]; first compound 0.3 µM): 0.0929 | relative viability ([7]; first compound 0.009487 µM): 0.498 | relative viability ([7]; first compound 0.03 µM): 0.133 | relative viability ([7]; first compound 0.09487 µM): 0.118 | relative viability ([7]; first compound 0.3 µM): 0.128 | relative viability ([8]; first compound 0.009487 µM): 1.02 | relative viability ([8]; first compound 0.03 µM): 0.0954 | relative viability ([8]; first compound 0.09487 µM): 0.0924 | relative viability ([8]; first compound 0.3 µM): 0.103 | relative viability ([9]; first compound 0.009487 µM): 0.527 | relative viability ([9]; first compound 0.03 µM): 0.111 | relative viability ([9]; first compound 0.09487 µM): 0.1 | relative viability ([9]; first compound 0.3 µM): 0.109 | relative viability ([11]; 0.009487 µM): 0.969 | relative viability ([11]; 0.03 µM): 0.145 | relative viability ([11]; 0.09487 µM): 0.117 | relative viability ([11]; 0.3 µM): 0.131

EBC-1
relative viability ([1]; first compound 0.009487 µM): 0.198 | relative viability ([1]; first compound 0.03 µM): 0.159 | relative viability ([1]; first compound 0.09487 µM): 0.151 | relative viability ([1]; first compound 0.3 µM): 0.136 | relative viability ([2]; first compound 0.009487 µM): 0.283 | relative viability ([2]; first compound 0.03 µM): 0.117 | relative viability ([2]; first compound 0.09487 µM): 0.109 | relative viability ([2]; first compound 0.3 µM): 0.142 | relative viability ([3]; first compound 0.009487 µM): 0.21 | relative viability ([3]; first compound 0.03 µM): 0.16 | relative viability ([3]; first compound 0.09487 µM): 0.168 | relative viability ([3]; first compound 0.3 µM): 0.157 | relative viability ([12]; first compound 0.009487 µM): 0.452 | relative viability ([12]; first compound 0.03 µM): 0.133 | relative viability ([12]; first compound 0.09487 µM): 0.152 | relative viability ([12]; first compound 0.3 µM): 0.146 | relative viability ([5]; first compound 0.009487 µM): 0.307 | relative viability ([5]; first compound 0.03 µM): 0.138 | relative viability ([5]; first compound 0.09487 µM): 0.136 | relative viability ([5]; first compound 0.3 µM): 0.163 | relative viability ([6]; first compound 0.009487 µM): 0.0927 | relative viability ([6]; first compound 0.03 µM): 0.0992 | relative viability ([6]; first compound 0.09487 µM): 0.106 | relative viability ([6]; first compound 0.3 µM): 0.106 | relative viability ([7]; first compound 0.009487 µM): 0.501 | relative viability ([7]; first compound 0.03 µM): 0.138 | relative viability ([7]; first compound 0.09487 µM): 0.123 | relative viability ([7]; first compound 0.3 µM): 0.141 | relative viability ([8]; first compound 0.009487 µM): 0.977 | relative viability ([8]; first compound 0.03 µM): 0.228 | relative viability ([8]; first compound 0.09487 µM): 0.101 | relative viability ([8]; first compound 0.3 µM): 0.127 | relative viability ([9]; first compound 0.009487 µM): 0.737 | relative viability ([9]; first compound 0.03 µM): 0.132 | relative viability ([9]; first compound 0.09487 µM): 0.126 | relative viability ([9]; first compound 0.3 µM): 0.106 | relative viability ([11]; 0.009487 µM): 0.875 | relative viability ([11]; 0.03 µM): 0.149 | relative viability ([11]; 0.09487 µM): 0.108 | relative viability ([11]; 0.3 µM): 0.141
